Two compounds from patent US11226337B2, “Chemoproteomic profiling of protein electrophilic and oxidative post-translational modifications” (Zenagem, LLC, priority 2017, dated 2022) can be followed below.

Experiment in all cases: SILAC RP-ABPP
Format in all cases: cell-based
Holding throughout (conditions): SILAC H/L

The target in test [1] is T1, CTSA Lysosomal protective protein (P10619) (Homo sapiens, UniProt P10619).
T1 construct: In Situ Labelling of Cells with Hydrazine Probes for MS Experiments; endogenous in cells; host or cells: HEK293T and/or MDA-MB-231
T1 sequence (P10619 29-480): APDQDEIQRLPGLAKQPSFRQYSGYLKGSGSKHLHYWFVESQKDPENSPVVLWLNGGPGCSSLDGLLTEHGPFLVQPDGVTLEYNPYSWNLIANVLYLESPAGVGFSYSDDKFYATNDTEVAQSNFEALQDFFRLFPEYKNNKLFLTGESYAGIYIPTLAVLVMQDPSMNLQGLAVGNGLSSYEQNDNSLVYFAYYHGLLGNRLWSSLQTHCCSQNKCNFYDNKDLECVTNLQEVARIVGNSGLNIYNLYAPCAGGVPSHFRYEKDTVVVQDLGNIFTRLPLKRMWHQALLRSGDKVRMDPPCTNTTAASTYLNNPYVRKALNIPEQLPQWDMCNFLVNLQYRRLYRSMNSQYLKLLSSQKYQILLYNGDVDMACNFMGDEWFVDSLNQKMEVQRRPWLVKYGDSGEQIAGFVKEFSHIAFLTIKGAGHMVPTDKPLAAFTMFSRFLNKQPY
How it is done: (§1) For MS-based experiments, labelling was performed in a similar manner as described above in Example 2, maintaining the same concentrations of probes. Modifications to this protocol included using isotopically ‘light’ and ‘heavy’ SILAC cells that were also grown to near complete confluence prior to treatment. Isotopically light cells were treated with the non-clickable hydrazine probe (at the same concentration as the probe in ‘enrichment’ experiments) or the probe in the presence of 10-fold excess non-clickable hydrazine probe as a competitor (in ‘competition’ experiments). Isotopically heavy cells were treated with the probe for both types of experiments. These treatments were performed in non-SILAC media. Following treatments, cells were washed with cold PBS to remove the probe-containing media, harvested by scraping, collected by centrifugation (1,400 g, 3 min, 4° C.), washed again by resuspension in cold PBS and frozen as pellets at −80° C. until use.
(§2) The fractionated equimolar mixture of heavy and light soluble proteomes (1-1.5 mg) was diluted to 1 mL in PBS. Click reactions were scaled accordingly (except for biotin-azide) to maintain final concentrations of 0.1 mM TBTA, 1 mM CuSO4, 100 μM biotin-azide (10 mM in DMSO) and 1 mM TCEP. The mixture was vortexed and placed on a rotator at ambient temperature for 1 hour. Sequential addition of and mixture with pre-chilled methanol (MeOH, 2 mL), chloroform (CHCl3, 0.5 mL) and PBS (1 mL) on ice quenched the reaction. The precipitated proteome was centrifuged (5,000 g, 10 min, 4° C.) to fractionate the protein interphase from the organic and aqueous solvent layers. The protein pellet was washed with cold 1:1 MeOH:CHCl3 (3×1 mL), mildly sonicated in cold 4:1 MeOH:CHCl3 (2.5 mL) and pelleted once more by centrifugation (5,000 g, 10 min, 4° C.) to ensure click reagents were efficiently removed.
(§3) Heavy and light parent ion chromatograms associated with successfully identified peptides were extracted and compared using CIMAGE software as previously described^69. At least one ion of a co-eluting heavy-light pair must be accurately identified from a fragmentation event that occurred within the retention time window (±10 min) of parent ion elution. To ensure that the correct pair of peaks is quantified, chromatograms are extracted within a 10 ppm error tolerance of the predicted m/z, the signal-to-noise ratio must be >2.5 and the ‘co-elution correlation score’ and ‘envelope correlation score’ must have R^2 values ≥0.8. In addition, peptides detected as ‘singletons,’ where only the heavy ion of a peptide pair was identified, but for which passed all other filtering parameters, are given a default assigned ratio of ‘20,’ which is defined as any measured ratio that is ≥20.
(§4) To further eliminate false positives and any stochastic variability in the data, protein ratios were then determined by the median peptide ratio derived from three or more unique quantified peptides. Protein ratios that complied with these criteria from a single experiment were then averaged with ratios acquired from ≥3 replicates to provide final values for each type of experiment in both cell lines with both probes. […] Most importantly, there are no robustly measured ratios for proteins identified as probe 1 targets that had measured ratios of ˜1 with probe 2. Probe targets in HEK293T and MDA-MB-231 cells represent data combined from ≥3 independent biological replicates with each cell type performed with several independent batches of synthesized probes over a period of almost two years.
(§5) Analogous experiments were also performed with the aryl hydrazine probe 2 (1 mM, 0.5 hour), which furnished a larger list of high-reactivity proteins (33 in total; Table 3) that contained several of the targets of probe 1 (compared in Table 4), as well as additional proteins that may reflect an expanded chemical reactivity for probe 2.

The target of test [2] is T2, CTSC Dipeptidyl peptidase 1 (P53634) (Homo sapiens, UniProt P53634).
T2 construct: In Situ Labelling of Cells with Hydrazine Probes for MS Experiments; endogenous in cells; host or cells: HEK293T and/or MDA-MB-231
How it is done:
as §1, §2, §3, §4, §5

Test [3] addresses T3, DENR Densityregulated protein (O43583) (Homo sapiens, UniProt O43583).
T3 construct: In Situ Labelling of Cells with Hydrazine Probes for MS Experiments; endogenous in cells; host or cells: HEK293T and/or MDA-MB-231
T3 sequence (O43583 1-198): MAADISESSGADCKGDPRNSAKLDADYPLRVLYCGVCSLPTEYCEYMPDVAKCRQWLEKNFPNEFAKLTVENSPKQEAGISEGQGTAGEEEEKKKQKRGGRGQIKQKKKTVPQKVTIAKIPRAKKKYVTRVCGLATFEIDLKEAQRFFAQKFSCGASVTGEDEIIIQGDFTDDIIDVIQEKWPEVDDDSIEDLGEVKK
How it is done: as §1, §2, §3, §4, §5

In test [4] the target is T4, FTO Alphaketoglutaratedependent dioxygenase (Q9C0B1) (Homo sapiens, UniProt Q9C0B1).
T4 construct: In Situ Labelling of Cells with Hydrazine Probes for MS Experiments; endogenous in cells; host or cells: HEK293T and/or MDA-MB-231
How it is done: as §1, §2, §3, §4, §5

The target of test [5] is T5, PPT1 Palmitoylprotein thioesterase 1 (P50897) (Homo sapiens, UniProt P50897).
T5 construct: In Situ Labelling of Cells with Hydrazine Probes for MS Experiments; endogenous in cells; host or cells: HEK293T and/or MDA-MB-231
T5 sequence (P50897 28-306): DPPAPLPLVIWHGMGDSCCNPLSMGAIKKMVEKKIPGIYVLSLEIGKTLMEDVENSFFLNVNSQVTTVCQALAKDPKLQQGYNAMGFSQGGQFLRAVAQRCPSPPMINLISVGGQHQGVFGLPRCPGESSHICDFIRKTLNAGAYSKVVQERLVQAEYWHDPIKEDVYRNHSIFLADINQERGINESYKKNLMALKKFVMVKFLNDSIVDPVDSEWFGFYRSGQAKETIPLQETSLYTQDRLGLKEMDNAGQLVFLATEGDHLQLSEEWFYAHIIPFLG
How it is done:
as §1, §2, §3, §4, §5

[6] abbreviates: probe 1 vs probe 1+10x probe 3, cell line not given.
The mark [7] stands for this setting: probe 2 1 mM 0.5 h vs probe 4, MDA-MB-231.
[8] abbreviates: probe 2 vs probe 2+10x probe 4, MDA-MB-231.

Structures are written as SMILES.

T4 sequence (Q9C0B1 whole entry): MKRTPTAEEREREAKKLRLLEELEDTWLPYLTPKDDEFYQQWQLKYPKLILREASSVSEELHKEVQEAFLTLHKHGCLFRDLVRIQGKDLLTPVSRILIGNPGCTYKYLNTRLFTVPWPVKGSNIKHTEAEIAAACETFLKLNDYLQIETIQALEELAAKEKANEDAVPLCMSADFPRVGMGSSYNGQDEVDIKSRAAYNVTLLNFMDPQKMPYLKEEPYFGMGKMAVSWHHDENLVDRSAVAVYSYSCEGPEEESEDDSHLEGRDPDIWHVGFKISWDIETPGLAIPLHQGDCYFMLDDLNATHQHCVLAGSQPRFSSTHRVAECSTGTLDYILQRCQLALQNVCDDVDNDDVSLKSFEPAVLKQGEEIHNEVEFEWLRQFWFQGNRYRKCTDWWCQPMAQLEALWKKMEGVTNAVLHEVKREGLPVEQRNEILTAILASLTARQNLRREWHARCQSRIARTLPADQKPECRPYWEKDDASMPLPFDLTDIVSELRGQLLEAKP
T2 sequence (P53634 25-463): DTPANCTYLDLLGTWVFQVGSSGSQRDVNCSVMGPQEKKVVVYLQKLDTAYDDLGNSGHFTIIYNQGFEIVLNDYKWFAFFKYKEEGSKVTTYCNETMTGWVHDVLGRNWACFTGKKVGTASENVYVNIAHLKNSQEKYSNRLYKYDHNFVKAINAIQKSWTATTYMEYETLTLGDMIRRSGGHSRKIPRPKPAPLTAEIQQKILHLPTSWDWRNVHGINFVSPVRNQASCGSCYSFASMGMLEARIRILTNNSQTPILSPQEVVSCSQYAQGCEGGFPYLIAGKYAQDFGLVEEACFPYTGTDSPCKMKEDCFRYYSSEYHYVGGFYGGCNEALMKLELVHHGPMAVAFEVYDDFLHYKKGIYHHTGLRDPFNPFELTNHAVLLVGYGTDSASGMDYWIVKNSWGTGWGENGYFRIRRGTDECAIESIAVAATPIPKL

In test [1] (probe 1 3 mM 0.5 h vs probe 3, cell line not given), `C#CCNN.Cl` [probe 1, prop-2-yn-1-ylhydrazine hydrochloride] returned an enrichment ratioavg of 4. Besides, the competition ratioavg in test [1] (setting [6]) stood at 4; in test [2] (setting [6]), 3; in test [3] (setting [6]) it was 1; in test [4] (setting [6]) it was 1; in test [5] (setting [6]) it was 5.
`C#CCCNC(=O)c1ccc(NN)cc1.Cl` [probe 2, N-(but-3-yn-1-yl)-4-hydrazinylbenzamide hydrochloride]: the enrichment ratioavg in test [1] (setting [7]) is reported as 9; in test [2] (setting [7]) it was 20; in test [3] (setting [7]) it was 20; in test [4] (probe 2 1 mM 0.5 h vs probe 4, HEK293T), 13; in test [5] (setting [7]), 20. The competition ratioavg in test [1] (setting [8]) turned out to be 4; in test [2] (setting [8]), 9; in test [3] (setting [8]) it was 5; in test [4] (probe 2 vs probe 2+10x probe 4, HEK293T), 5; in test [5] (setting [8]) it was 5.
